For 19 compounds, IC50 results are on record in US20260274833A1 (NiKang Therapeutics, Inc., priority 2022, published 2026).

For the assay, the target named is T1, CDK2 (Homo sapiens, UniProt P24941).
T1 construct: endogenous in cells; host or cells: OVCAR3 cells
Put plainly: Phospho-RB measurement in OVCAR3 cells (HTRF phospho-RB cellular kit). The assay is classed as cell-based. Conditions: inhibition of RB phosphorylation at S807/811 (HTRF, TR-FRET ratio 665/620), 24 h compound treatment, 0.3 to 10,000 nM. How it is done:
Biological Example 1: Phospho-RB Measurement in OVCAR3 Cells
The ability of compounds of Formula (I) to inhibit CDK2 was determined in OVCAR3 cells by measuring inhibition of phosphorylation of RB protein at S780 and S807/811. Phosphorylation of RB protein at S807/811 were measured using HTRF phospho-RB cellular kits (Cat #64RBS807PEG) from Cisbio.
On Day 1, OVCAR3 cells were seeded into 96-well tissue-culture treated plates at 20,000 cells/well in 200 μL and incubated overnight at 37° C. in CO2 atmosphere. On Day 2, the cells were treated with test compounds at concentrations from 0.3 to 10,000 nM using HP D300 digital dispenser. Twenty-four hours after compound treatment, cell culture media was removed by flicking the plate and tapping the plate against clean paper towel. Immediately 30 μL 1× lysis buffer was supplemented from the kit and the plate was incubated at room temperature on shaker for 30 min. After homogenization by pipetting up and down, 8 μL cell lysate from 96-well cell culture plate was transferred to 384-well small volume white detection plate. 2 μL premixed detection solution was added and the plate was covered with sealer. To prepare the detection solution, d2 conjugated-phospho-RB antibody and Eu-cryptate conjugated phosphor-RB antibody were diluted into detection buffer following manufacturer's instruction.
Detection plates were incubated for 4 h at room temperature and read on ClarioStar (BMG Labtech) in TR-FRET mode ([…]). The TR-FRET ratio (665 nM/620 nM) was plotted against the compound concentration and normalized to DMSO controls. Half maximal inhibition concentration (IC50) values are calculated with a four-parameter logistic fit using GraphPad Prism (version 8; La Jolla, CA).
For orientation: Time-resolved FRET reads energy transfer from a long-lived donor to a nearby acceptor.

By IC50 is commonly meant the concentration at which inhibition is half-maximal. Consider `CC(C)(C)c1nc(-c2cccc(NS(=O)(=O)N3CCc4c3cccc4C(C)(C)O)c2F)c(-c2ccnc(NC3CC4(C3)CS(=O)(=O)C4)n2)s1` [Example 230, N-(3-(2-(tert-butyl)-5-(2-((2,2-dioxido-2-thiaspiro[3.3]heptan-6-yl)amino)-pyrimidin-4-yl)thiazol-4-yl)~2-fluoro-phenyl)-4-(2-hydroxypropan-2-yl)-indoline-1-sulfonamide], for which the IC50 turned out to be 354 nM.
For `CC(C)(C)c1nc(-c2cccc(NS(=O)(=O)N3CCc4ccc(-c5ccccc5)cc43)c2F)c(-c2ccnc(NC3CCN(S(C)(=O)=O)CC3)n2)s1` [Example 218, N-(3-(2-(tert-butyl)-5-(2-((1-(methylsulfonyl)-piperidin-4-yl)amino)-pyrimidin-4-yl)thiazol-4-yl)-2-fluoro-phenyl)-6-phenylindoline-1-sulfonamide] the value was 1300 nM; for `O=S1(=O)CC2(CC(Nc3nccc(-c4sc(C56CC(C(F)F)(C5)C6)nc4-c4cccc(NS(=O)(=O)N5CCc6ccc(C(F)(F)F)cc65)c4F)n3)C2)C1` [Example 278, N-(3-(2-(3-(difluoromethyl)bicyclo-[1.1.1]-pentan-1-yl)-5-(2-((2,2-dioxido-2-thiaspiro[3.3]heptan-6-yl)amino)-pyrimidin-4-yl)thiazol-4-yl)-2-fluorophenyl)-6-(trifluoromethyl)-indoline-1-sulfonamide], 103 nM.
For `CN1CC2CCC(C1)N2c1nc(-c2cccc(NS(=O)(=O)N3CCc4ccc(C(F)(F)F)cc43)c2F)c(-c2ccnc(NC3CC4(C3)CS(=O)(=O)C4)n2)s1` [Example 292, N-(3-(5~(2-((2,2-dioxido-2-thiaspiro-[3.3]heptan-6-yl)amino)pyrimidin-4-yl)-2-(3-methyl-3,8-diazabicyclo[3.2.1]-octan-8-yl)thiazol-4-yl)-2-fluorophenyl)-6-(trifluoromethyl) indoline-1-sulfonamide] the value was 29.9 nM; for `O=S1(=O)CC2(CC(Nc3nccc(-c4sc(C56CC(F)(C5)C6)nc4-c4cccc(NS(=O)(=O)N5CCc6ccc(C(F)(F)F)cc65)c4F)n3)C2)C1` [Example 277, N-(3-(5-(2-((2,2-dioxido-2-thiaspiro-[3.3]-heptan-6-yl)amino)pyrimidin-4-yl)-2-(3-fluorobicyclo [1.1.1]pentan-1-yl)-thiazol-4-yl)-2-fluorophenyl)-6-(trifluoromethyl) indoline-1-sulfonamide], 111 nM; for `CC(C)(C)c1nc(-c2cccc(NS(=O)(=O)N3CCc4cc(C#N)ccc43)c2F)c(-c2ccnc(NC3CC4(C3)CS(=O)(=O)C4)n2)s1` [Example 195, N-(3-(2-(tert-butyl)-5-(2-((2,2-dioxido-2-thiaspiro[3.3]heptan-6-yl)amino)-pyrimidin-4-yl)thiazol-4-yl)-2-fluoro-phenyl)-5-cyanoindoline-1-sulfonamide], 320 nM.
For `CC(C)(C)c1nc(-c2cccc(NS(=O)(=O)N3CCn4cncc4C3)c2F)c(-c2ccnc(NC3CCN(S(C)(=O)=O)CC3)n2)s1` [Example 83, N-(3-(2-(tert-butyl)-5-(2-((1-(methylsulfonyl)-piperidin-4-yl)amino)-pyrimidin-4-yl)thiazol-4-yl)-2-fluoro-phenyl)-5,6-dihydroimidazo [1,5-a]-pyrazine-7 (8H)-sulfonamide] the value was 1470 nM; for `CNCCOc1cccc2c1CN(S(=O)(=O)Nc1cccc(-c3nc(C(C)(C)C)sc3-c3ccnc(NC4CCN(S(C)(=O)=O)CC4)n3)c1F)C2` [Example 164, N-(3-(2-(tert-butyl)-5-(2-((1-(methylsulfonyl)-piperidin-4-yl)amino)-pyrimidin-4-yl)thiazol-4-yl)-2-fluoro-phenyl)-4-(2-(methylamino)-ethoxy)-isoindoline-2-sulfonamide], 2670 nM.
Regarding `COCCN1CCN(c2ccc(Nc3nccc(-c4sc(C(C)(C)C)nc4-c4cccc(NS(=O)(=O)N5CCc6ccc(C#N)cc65)c4F)n3)cc2)CC1` [Example 233, N-(3-(2-(tert-butyl)-5-(2-((4-(4-(2-methoxy-ethyl)piperazin-1-yl)phenyl)-amino)-pyrimidin-4-yl)thiazol-4-yl)-2-fluorophenyl)-6-cyanoindoline-1-sulfonamide], the IC50 amounted to 765 nM.
Regarding `O=S1(=O)CC2(CC(Nc3nccc(-c4sc(C56CC(C(F)(F)F)(C5)C6)nc4-c4cccc(NS(=O)(=O)N5CCc6ccc(Cl)cc65)c4F)n3)C2)C1` [Example 280, 6-chloro-N-(3-(5-(2-((2,2-dioxido-2-thiaspiro[3.3]heptan-6-yl)amino)-pyrimidin-4-yl)-2-(3-(trifluoromethyl)-bicyclo[1.1.1]pentan-1-yl)thiazol-4-yl)-2-fluorophenyl) indoline-1-sulfonamide], the IC50 came to 285 nM.
For `O=S1(=O)CC2(CC(Nc3nccc(-c4sc(C56CC(C5)C6)nc4-c4cccc(NS(=O)(=O)N5CCc6ccc(C(F)(F)F)cc65)c4F)n3)C2)C1` [Example 19, N-(3-(2-(bicyclo [1.1.1]pentan-1-yl)-5-(2-((2,2-dioxido-2-thiaspiro[3.3]heptan-6-yl)amino)-pyrimidin-4-yl)thiazol-4-yl)-2-fluorophenyl)-6-(trifluoromethyl)-indoline-1-sulfonamide] the value was 120 nM; for `CN1CCN(S(=O)(=O)N2CCC(Nc3nccc(-c4sc(C(C)(C)C)nc4-c4cccc(NS(=O)(=O)N5Cc6ccncc6C5)c4F)n3)CC2)CC1` [Example 128, N-(3-(2-(tert-butyl)-5-(2-((1-((4-methylpiperazin-1-yl)sulfonyl)piperidin-4.yl)-amino)pyrimidin~4-yl)thiazol-4-yl)-2-fluorophenyl)-1,3-dihydro-2H-pyrrolo[3,4-c]-pyridine-2-sulfonamide], 162 nM; for `CC(C)(C)c1nc(-c2cccc(NS(=O)(=O)N3Cc4cccc(-c5ccccc5)c4C3)c2F)c(-c2ccnc(NC3CCN(S(C)(=O)=O)CC3)n2)s1` [Example 224, N-(3-(2-(tert-butyl)-5-(2-((1-(methylsulfonyl)-piperidin-4-yl)amino)-pyrimidin-4-yl)thiazol-4-yl)-2-fluoro-phenyl)-4-phenylisoindoline-2-sulfonamide], 300 nM.
For `CN(C)S(=O)(=O)Nc1cccc(-c2nc(C(C)(C)C)sc2-c2ccnc(NC3CC4(C3)CS(=O)(=O)C4)n2)c1F` [Example 184, N-(3-(2-(tert-butyl)-5-(2-((2,2-dioxido-2-thiaspiro[3.3]heptan-6-yl)amino)-pyrimidin-4-yl)thiazol-4-yl)-2-fluoro-phenyl)dimethyl-aminesulfonamide] the value was 1540 nM; for `CC(C)(C)c1nc(-c2cccc(NS(=O)(=O)N3CCc4ccc(C#N)cc43)c2F)c(-c2ccnc(NC3CC4(C3)CN(S(C)(=O)=O)C4)n2)s1` [Example 200, N-(3-(2-(tert-butyl)-5-(2-((2-(methylsulfonyl)-2-azaspiro [3.3]heptan-6-yl)amino)pyrimidin-4-yl)thiazol-4-yl)-2-fluorophenyl)-6-cyanoindoline-1-sulfonamide], 247 nM; for `CC(C)(C)c1nc(-c2cccc(NS(=O)(=O)N3CCc4ccc(C#N)cc43)c2F)c(-c2ccnc(NC3CC4(C3)CS(=O)(=O)C4)n2)s1` [Example 170, N-(3-(2-(tert-butyl)-5-(2-((2,2-dioxido-2-thiaspiro[3.3]heptan-6-yl)amino)-pyrimidin-4-yl)thiazol-4-yl)-2-fluoro-phenyl)-6-cyano-indoline-1-sulfonamide], 62 nM.
Next, `N#Cc1ccc2c(c1)N(S(=O)(=O)Nc1cccc(-c3nc(C45CC(C4)C5)sc3-c3ccnc(NC4CC5(C4)CS(=O)(=O)C5)n3)c1F)CC2` [Example 9, N-(3-(2-(bicyclo [1.1.1]pentan-1-yl)-5-(2-((2,2-dioxido-2-thiaspiro[3.3]heptan-6-yl)amino)-pyrimidin-4-yl)thiazol-4-yl)-2-fluorophenyl)-6-cyanoindoline-1-sulfonamide]: 104 nM.
As for `CC(C)(C)c1nc(-c2cccc(NS(=O)(=O)N3CCCc4ccccc4C3)c2F)c(-c2ccnc(NC3CCN(S(C)(=O)=O)CC3)n2)s1` [Example 80, N-(3-(2-(tert-butyl)-5-(2-((1-(methylsulfonyl)-piperidin-4-yl)amino)-pyrimidin-4-yl)thiazol-4-yl)-2-fluorophenyl)-1,3,4,5-tetrahydro-2H-benzo[c]azepine-2-sulfonamide], the IC50 stood at 172 nM.
As to `CC(C)(C)c1nc(-c2cccc(NS(=O)(=O)N3Cc4cccc(C(F)F)c4C3)c2F)c(-c2ccnc(NC3CC4(C3)CS(=O)(=O)C4)n2)s1` [Example 262, N~(3-(2-(tert-butyl)-5-(2-((2,2-dioxido-2-thiaspiro[3.3]heptan-6-yl)amino)-pyrimidin-4-yl)thiazol-4-yl)-2-fluoro-phenyl)-4-(difluoromethyl)-isoindoline-2-sulfonamide], the IC50 came to 31.2 nM.
